Data reported in US9067871B2, “Aminotetraline derivatives, pharmaceutical compositions containing them, and their use in therapy” (ABBVIE DEUTSCHLAND GMBH & CO KG, priority 2009, dated 2015).
Where a name gives a salt, the structure may show the parent alone. Read-outs that look alike come from different tables or passages of the source.

Biological target: human GlyT1c transporter (Homo sapiens (Human), UniProt P48067)
Assay: Radioligand binding assay using recombinant CHO cell membranes expressing human GlyT1
Conditions: human GlyT1c-expressing CHO cell membranes, read-out: radioligand binding Kiapp
Text: 2. Radioligand binding assays using recombinant CHO cell membranes expressing human GlyT1: […]

Chain of human GlyT1c transporter (P48067 whole entry): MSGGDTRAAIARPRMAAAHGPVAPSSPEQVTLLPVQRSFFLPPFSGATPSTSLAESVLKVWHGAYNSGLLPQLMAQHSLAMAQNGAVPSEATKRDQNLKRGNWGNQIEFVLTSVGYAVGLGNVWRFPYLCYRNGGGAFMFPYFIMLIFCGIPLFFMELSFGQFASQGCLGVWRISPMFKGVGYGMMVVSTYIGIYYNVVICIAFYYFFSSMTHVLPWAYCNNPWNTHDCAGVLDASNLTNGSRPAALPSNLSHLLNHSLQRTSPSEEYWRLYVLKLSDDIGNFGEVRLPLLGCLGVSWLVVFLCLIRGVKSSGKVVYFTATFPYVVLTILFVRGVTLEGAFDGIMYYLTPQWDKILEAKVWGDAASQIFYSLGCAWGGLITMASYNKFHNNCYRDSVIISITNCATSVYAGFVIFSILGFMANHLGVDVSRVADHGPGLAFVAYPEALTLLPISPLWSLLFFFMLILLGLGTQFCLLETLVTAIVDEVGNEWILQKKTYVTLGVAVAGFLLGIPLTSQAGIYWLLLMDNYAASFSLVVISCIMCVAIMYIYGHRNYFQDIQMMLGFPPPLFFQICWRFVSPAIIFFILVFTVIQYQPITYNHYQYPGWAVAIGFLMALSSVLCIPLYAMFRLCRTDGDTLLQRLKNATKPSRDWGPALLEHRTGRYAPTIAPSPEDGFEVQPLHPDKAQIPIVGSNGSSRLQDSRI

Structure (SMILES): O=S(=O)(CC1CC1)NCCOc1ccc2c(c1)C(Cc1ccc(Cl)c(Cl)c1)C(N1CCC(F)C1)CC2 (stereo not drawn) [Example 134, 1-Cyclopropyl-N-[2-({8-(3,4-dichlorobenzyl)-7-[3-fluoropyrrolidin-1-yl]-5,6,7,8-tetrahydronaphthalen-2-yl}oxy)ethyl]methanesulfonamide]
- Ki: ≤ 1 µM

Structure (SMILES): O=S(=O)(CC1CC1)NCCOc1ccc2c(c1)C(Cc1ccc(Cl)c(Cl)c1)C(N1CCC1)CC2 (stereo not drawn) [Example 135, N-(2-{[7-(Azetidin-1-yl)-8-(3,4-dichlorobenzyl)-5,6,7,8-tetrahydronaphthalen-2-yl]oxy}ethyl)-1-cyclopropylmethanesulfonamide]
- Ki: ≤ 0.1 µM

Structure (SMILES): O=S(=O)(CC1CC1)NCCOc1ccc2c(c1)C(Cc1ccccc1)C(N1CCC(F)C1)CC2 (stereo not drawn) [Example 136, N-[2-({8-Benzyl-7-[3-fluoropyrrolidin-1-yl]-5,6,7,8-tetrahydronaphthalen-2-yl}oxy)ethyl]-1-cyclopropylmethanesulfonamide hydrochloride]
- Ki: ≤ 0.1 µM

Structure (SMILES): CNC1CCc2ccc(OCCNS(=O)(=O)CC3CC3)cc2C1Cc1ccccc1 (stereo not drawn) [Example 137, N-(2-{[8-Benzyl-7-(methylamino)-5,6,7,8-tetrahydronaphthalen-2-yl]oxy}ethyl)-1-cyclopropylmethanesulfonamide hydrochloride]
- Ki: ≤ 0.01 µM

Structure (SMILES): O=S(=O)(CC1CC1)NCCOc1ccc2c(c1)C(Cc1cccc(F)c1)C(N1CCCC1)CC2 (stereo not drawn) [Example 138, 1-Cyclopropyl-N-(2-{[8-(3-fluorobenzyl)-7-(pyrrolidin-1-yl)-5,6,7,8-tetrahydronaphthalen-2-yl]oxy}ethyl)methanesulfonamide hydrochloride]
- Ki: ≤ 0.01 µM

Structure (SMILES): O=S(=O)(CC1CC1)NCCOc1ccc2c(c1)C(Cc1cccc(F)c1)C(N1CCC1)CC2 (stereo not drawn) [Example 139, N-(2-{[7-(Azetidin-1-yl)-8-(3-fluorobenzyl)-5,6,7,8-tetrahydronaphthalen-2-yl]oxy}ethyl)-1-cyclopropylmethanesulfonamide hydrochloride]
- Ki: ≤ 0.01 µM

Structure (SMILES): Cn1cnc(S(=O)(=O)NCCOc2ccc3c(c2)C(Cc2cccc(F)c2)C(N2CCCC2)CC3)c1 (stereo not drawn) [Example 140, N-(2-{[8-(3-Fluorobenzyl)-7-(pyrrolidin-1-yl)-5,6,7,8-tetrahydronaphthalen-2-yl]oxy}ethyl)-1-methyl-1H-imidazole-4-sulfonamide hydrochloride]
- Ki: ≤ 0.01 µM

Structure (SMILES): Cn1cnc(S(=O)(=O)NCCOc2ccc3c(c2)C(Cc2cccc(F)c2)C(N2CCC2)CC3)c1 (stereo not drawn) [Example 141, N-(2-{[7-(Azetidin-1-yl)-8-(3-fluorobenzyl)-5,6,7,8-tetrahydronaphthalen-2-yl]oxy}ethyl)-1-methyl-1H-imidazole-4-sulfonamide hydrochloride]
- Ki: ≤ 0.01 µM

Structure (SMILES): O=S(=O)(CC1CC1)NCCOc1ccc2c(c1)C(Cc1ccccc1)C(N1CCC1)CC2 (stereo not drawn) [Example 142, N-(2-{[7-(Azetidin-1-yl)-8-benzyl-5,6,7,8-tetrahydronaphthalen-2-yl]oxy}ethyl)-1-cyclopropylmethanesulfonamide hydrochloride]
- Ki (hydrochloride): ≤ 0.1 µM

Structure (SMILES): Cn1cnc(S(=O)(=O)NCCOc2ccc3c(c2)C(Cc2ccccc2)C(N2CCC2)CC3)c1 (stereo not drawn) [Example 145, N-(2-{[7-(Azetidin-1-yl)-8-benzyl-5,6,7,8-tetrahydronaphthalen-2-yl]oxy}ethyl)-1-methyl-1H-imidazole-4-sulfonamide]
- Ki: ≤ 0.01 µM

Structure (SMILES): O=S(=O)(NCCOc1ccc2c(c1)C(Cc1ccccc1)C(N1CCC1)CC2)C1CCC1 (stereo not drawn) [Example 147, N-(2-{[7-(Azetidin-1-yl)-8-benzyl-5,6,7,8-tetrahydronaphthalen-2-yl]oxy}ethyl)cyclobutanesulfonamide]
- Ki: ≤ 0.1 µM

Structure (SMILES): CCCS(=O)(=O)NCCOc1ccc2c(c1)C(Cc1ccccc1)C(N1CCC1)CC2 (stereo not drawn) [Example 148, Propane-1-sulfonic acid [2-(7-azetidin-1-yl-8-benzyl-5,6,7,8-tetrahydro-naphthalen-2-yloxy)-ethyl]-amide]
- Ki: ≤ 0.1 µM

Structure (SMILES): Cn1ccc(S(=O)(=O)NCCOc2ccc3c(c2)C(Cc2cccc(F)c2)C(N2CCCC2)CC3)c1 (stereo not drawn) [Example 149, N-(2-{[8-(3-Fluorobenzyl)-7-(pyrrolidin-1-yl)-5,6,7,8-tetrahydronaphthalen-2-yl]oxy}ethyl)-1-methyl-1H-pyrrole-3-sulfonamide hydrochloride]
- Ki: ≤ 0.1 µM

Structure (SMILES): NC1CCc2ccc(OCCNS(=O)(=O)CC3CC3)cc2C1Cc1cc(F)cc(Cl)c1 (stereo not drawn) [Example 150, N-(2-{[7-Amino-8-(3-chloro-5-fluorobenzyl)-5,6,7,8-tetrahydronaphthalen-2-yl]oxy}ethyl)-1-cyclopropylmethanesulfonamide hydrochloride]
- Ki: ≤ 0.01 µM

Structure (SMILES): Cn1cnc(S(=O)(=O)NCCOc2ccc3c(c2)C(Cc2cc(F)cc(Cl)c2)C(N)CC3)c1 (stereo not drawn) [Example 151, N-(2-{[7-Amino-8-(3-chloro-5-fluorobenzyl)-5,6,7,8-tetrahydronaphthalen-2-yl]oxy}ethyl)-1-methyl-1H-imidazole-4-sulfonamide hydrochloride]
- Ki: ≤ 0.01 µM

Structure (SMILES): Cn1cnc(S(=O)(=O)NCCOc2ccc3c(c2)C(Cc2ccccc2)C(N2CCC(F)C2)CC3)c1 (stereo not drawn) [Example 152, N-[2-({8-Benzyl-7-[3-fluoropyrrolidin-1-yl]-5,6,7,8-tetrahydronaphthalen-2-yl}oxy)ethyl]-1-methyl-1H-imidazole-4-sulfonamide hydrochloride]
- Ki: ≤ 0.01 µM

Structure (SMILES): Cn1cnc(S(=O)(=O)NCCOc2ccc3c(c2)C(Cc2cccc(C#N)c2)C(N2CCCC2)CC3)c1 (stereo not drawn) [Example 153, N-(2-{[8-(3-Cyanobenzyl)-7-(pyrrolidin-1-yl)-5,6,7,8-tetrahydronaphthalen-2-yl]oxy}ethyl)-1-methyl-1H-imidazole-4-sulfonamide]
- Ki: ≤ 0.1 µM

Structure (SMILES): CC(C)NC1CCc2ccc(OCCNS(=O)(=O)c3cn(C)cn3)cc2C1Cc1cccc(C#N)c1 (stereo not drawn) [Example 154, N-(2-{[8-(3-Cyanobenzyl)-7-(propan-2-ylamino)-5,6,7,8-tetrahydronaphthalen-2-yl]oxy}ethyl)-1-methyl-1H-imidazole-4-sulfonamide hydrochloride]
- Ki: ≤ 0.1 µM

Structure (SMILES): N#Cc1cccc(CC2c3cc(OCCNS(=O)(=O)CC4CC4)ccc3CCC2N2CCCC2)c1 (stereo not drawn) [Example 155, N-(2-{[8-(3-Cyanobenzyl)-7-(pyrrolidin-1-yl)-5,6,7,8-tetrahydronaphthalen-2-yl]oxy}ethyl)-1-cyclopropylmethanesulfonamide hydrochloride]
- Ki: ≤ 1 µM

Structure (SMILES): CC(C)NC1CCc2ccc(OCCNS(=O)(=O)CC3CC3)cc2C1Cc1cccc(C#N)c1 (stereo not drawn) [Example 156, N-(2-{[8-(3-Cyanobenzyl)-7-(propan-2-ylamino)-5,6,7,8-tetrahydronaphthalen-2-yl]oxy}ethyl)-1-cyclopropylmethanesulfonamide hydrochloride]
- Ki: ≤ 1 µM

Structure (SMILES): CNC1CCc2ccc(OCCNS(=O)(=O)CC3CC3)cc2C1Cc1cc(F)cc(Cl)c1 (stereo not drawn) [Example 158, N-(2-{[8-(3-Chloro-5-fluorobenzyl)-7-(methylamino)-5,6,7,8-tetrahydronaphthalen-2-yl]oxy}ethyl)-1-cyclopropylmethanesulfonamide hydrochloride]
- Ki: ≤ 0.01 µM

Structure (SMILES): O=S(=O)(CC1CC1)NCCOc1ccc2c(c1)C(Cc1cc(F)cc(Cl)c1)C(N1CCC1)CC2 (stereo not drawn) [Example 159, N-(2-{[7-(Azetidin-1-yl)-8-(3-chloro-5-fluorobenzyl)-5,6,7,8-tetrahydronaphthalen-2-yl]oxy}ethyl)-1-cyclopropylmethanesulfonamide (2E)-but-2-enedioate]
- Ki: ≤ 0.1 µM

Structure (SMILES): Cn1cnc(S(=O)(=O)NCCOc2ccc3c(c2)C(Cc2cc(F)cc(Cl)c2)C(N2CCC2)CC3)c1 (stereo not drawn) [Example 160, N-(2-{[7-(Azetidin-1-yl)-8-(3-chloro-5-fluorobenzyl)-5,6,7,8-tetrahydronaphthalen-2-yl]oxy}ethyl)-1-methyl-1H-imidazole-4-sulfonamide(2E)-but-2-enedioate]
- Ki: ≤ 0.01 µM

Structure (SMILES): CNC1CCc2ccc(OCCNS(=O)(=O)CC3CC3)cc2C1Cc1ccc(F)cc1 (stereo not drawn) [Example 161, 1-Cyclopropyl-N-(2-{[8-(4-fluorobenzyl)-7-(methylamino)-5,6,7,8-tetrahydronaphthalen-2-yl]oxy}ethyl)methanesulfonamide]
- Ki: ≤ 0.01 µM

Structure (SMILES): Cc1cccc(CC2c3cc(OCCNS(=O)(=O)c4cn(C)cn4)ccc3CCC2N2CCCC2)c1 (stereo not drawn) [Example 163, 1-Methyl-N-(2-{[8-(3-methylbenzyl)-7-(pyrrolidin-1-yl)-5,6,7,8-tetrahydronaphthalen-2-yl]oxy}ethyl)-1H-imidazole-4-sulfonamide]
- Ki: ≤ 0.01 µM

Structure (SMILES): COc1cccc(CC2c3cc(OCCNS(=O)(=O)c4cn(C)cn4)ccc3CCC2N2CCCC2)c1 (stereo not drawn) [Example 164, N-(2-{[8-(3-Methoxybenzyl)-7-(pyrrolidin-1-yl)-5,6,7,8-tetrahydronaphthalen-2-yl]oxy}ethyl)-1-methyl-1H-imidazole-4-sulfonamide hydrochloride]
- Ki: ≤ 0.01 µM

Structure (SMILES): Cn1cnc(S(=O)(=O)NCCOc2ccc3c(c2)C(Cc2cccc(C(F)(F)F)c2)C(N)CC3)c1 (stereo not drawn) [Example 165, 1-Methyl-1H-imidazole-4-sulfonic acid {2-[7-amino-8-(3-trifluoromethyl-benzyl)-5,6,7,8-tetrahydro-naphthalen-2-yloxy]-ethyl}-amide hydrochloride]
- Ki: ≤ 0.01 µM

Structure (SMILES): Cn1cc(S(=O)(=O)NCc2ccc3c(c2)C(Cc2ccccc2)C(N)CC3)cn1 (stereo not drawn) [Example 172, N-[(7-Amino-8-benzyl-5,6,7,8-tetrahydronaphthalen-2-yl)methyl]-1-methyl-1H-pyrazole-4-sulfonamide hydrochloride]
- Ki: ≤ 0.01 µM

Structure (SMILES): Cn1cnc(S(=O)(=O)NCc2ccc3c(c2)C(Cc2ccccc2)C(N)CC3)c1 (stereo not drawn) [Example 173, N-[(7-Amino-8-benzyl-5,6,7,8-tetrahydronaphthalen-2-yl)methyl]-1-methyl-1H-imidazole-4-sulfonamide hydrochloride]
- Ki: ≤ 0.01 µM

Structure (SMILES): NC1CCc2ccc(CNS(=O)(=O)C3CCC3)cc2C1Cc1ccc(F)cc1 (stereo not drawn) [Example 174, N-{[7-Amino-8-(4-fluorobenzyl)-5,6,7,8-tetrahydronaphthalen-2-yl]methyl}cyclobutanesulfonamide hydrochloride]
- Ki: ≤ 1 µM
